These results are taken from patent US8268775B2, “Macrolactone derivatives” (Sanofi, priority 2007, dated 2012).

Values after ≈ are worked out from the molar mass of the structure shown.

The assay concerns Candida albicans FH 2173. Briefly: Antifungal activity against Candida albicans, bouillon dilution method (microdilution). It is filed as cell-based. The following applies: FH2173, growth inhibition by 50%, Mueller Hinton broth, 37° C., 20 hours, absorption at 590 nm. Here is the method: For the detection of the antifungal activity of rapidly growing, aerobic causative organisms, the bouillon dilution method (microdilution) according to a procedure of the CLSI (Clinical and Laboratory Standards Institute, M7-A7, Vol. 26, No. 2) is used. The IC50 value was determined. This is the concentration of an active substance which is necessary in order to inhibit the growth of the test organism Candida albicans by 50%.
A stock solution of 1000 μg/ml of active substance [for example the compound of the formula (II) or the compound of the formula (IV)] in methanol was prepared. The test strain (Candida albicans FH 2173) was stored at −80° C. The inoculum was prepared from a fresh, liquid preculture. The preculture was prepared from a bead of the material stored at −80° C. and 30 ml of nutrient medium (Sabourad dextrose broth, Difco) and incubated at 37° C. and 180 revolutions per minute for 24 hours. The inoculum is to be adjusted such that after the inoculation of the test container the necessary number of colony-forming units is achieved. For this, the inoculum was adjusted to a value of 10^7 CFU/ml (CFU: colony forming units) by means of a photometer at a wavelength of 590 nm. […] The exact colony count was determined by means of surface culture. […] The microtiter plates were read with the aid of a photometer at a wavelength of 590 nm by measurement of the absorption. […]
(In general: Dilution methods test growth across graded concentrations, often in twofold steps.)

A word on the IC50: it is the midpoint of a concentration-inhibition curve. Compound `CCC(C)C1C(=O)NC(Cc2cc(Cl)c(O)c(Cl)c2)C(=O)NC(C(C)(C)O)C(=O)OC(c2ccccc2)C(C)/C=C/C=C(\C)C(OC)CC2OC2(C)C(=O)N1C` (centres unmarked) [Compound (II)] came in with an IC50 of 0.06 µg/mL (≈ 0.0735 µM). To `CCC(C)C1C(=O)NC(Cc2cc(Cl)c(OC)c(Cl)c2)C(=O)NC(C(C)(C)O)C(=O)OC(c2ccccc2)C(C)/C=C/C=C(\C)C(OC)CC2OC2(C)C(=O)N1C` (centres unmarked) [Compound (IV)] belongs 0.41 µg/mL (≈ 0.493 µM).
